For 25 compounds, IC50 results are on record in patent US20230124361A1, “SMALL MOLECULE STING ANTAGONISTS” (CURADEV PHARMA PVT. LTD., priority 2020, published 2023).

For this test, the target named is T1, STING (Homo sapiens, UniProt Q86WV6, G230A/H232R/R293Q/R71H).
T1 construct: host or cells: THP1-Dual cells (human THP-1 monocyte line with Lucia/SEAP reporters)
T1 sequence (Q86WV6 whole entry R71H/G230A/H232R/R293Q): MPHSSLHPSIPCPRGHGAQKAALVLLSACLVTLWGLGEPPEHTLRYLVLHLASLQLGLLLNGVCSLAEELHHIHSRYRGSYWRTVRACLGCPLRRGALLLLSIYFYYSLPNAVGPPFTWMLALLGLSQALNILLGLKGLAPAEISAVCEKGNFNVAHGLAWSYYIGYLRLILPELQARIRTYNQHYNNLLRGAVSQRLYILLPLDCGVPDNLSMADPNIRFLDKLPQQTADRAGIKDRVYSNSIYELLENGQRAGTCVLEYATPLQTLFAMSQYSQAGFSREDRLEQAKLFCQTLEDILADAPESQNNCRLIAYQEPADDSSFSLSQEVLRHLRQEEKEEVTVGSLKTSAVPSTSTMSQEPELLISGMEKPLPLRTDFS
The test is described as follows: Reporter gene expression assay in THP1-Dual cells (IRF pathway Lucia luciferase, 2',3'-cGAMP stimulation). The test is classed as cell-based. The conditions noted are these: 10 min preincubation, 5 μM 2',3'-cGAMP, 20 hr, IRF reporter QUANTI-Luc, read-out: THP-1 (HAQ) Activity. The gist of the method:
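THP1-Dual cells preincubated 10 min with compound, then stimulated with 5 μM 2′,3′-cGAMP for 20 hr. Secreted Lucia luciferase (IRF reporter) measured in supernatant by luminescence; IC50 reported as ranges (A ≤1 μM, B >1–≤10 μM, C >10 μM).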
Consider `N#Cc1ccc(CN2C(=O)COc3cc(NC(=O)Nc4ccc5cc[nH]c5c4)ccc32)cc1` [Example 123, 1-(4-(4-cyanobenzyl)-3-oxo-3,4-dihydro-2H-benzo[b][1,4]oxazin-7-yl)-3-(1H-indol-6-yl)urea], for which the IC50 was 1 to 10 µM.

Turning to `COc1ccc(F)c(CN2C(=O)CSc3cc(NC(=O)Nc4ccc5cc[nH]c5c4)ccc32)c1Cl` [Example 124, l-(4-(2-chloro-6-fluoro-3-methoxybenzyl)-3-oxo-3,4-dihydro-2H-benzo[b][1, 4]thiazin-7-yl)-3-(1H-indol-6-yl)urea], the IC50 was ≤ 1 µM.

`O=C(Nc1ccc2c(c1)SCC(=O)N2Cc1c(F)ccc(O)c1Cl)Nc1ccc2cc[nH]c2c1` [Example 125, l-(4-(2-chloro-6-fluoro-3-hydroxybenzyl)-3-oxo-3,4-dihydro-2H-benzo[b][1, 4]thiazin-7-yl)-3-(1H-indol-6-yl)urea]: the IC50 is ≤ 1 µM.

On to `COc1cc(F)c(CN2C(=O)CSc3cc(NC(=O)Nc4ccc5cc[nH]c5c4)ccc32)c(F)c1` [Example 126, 1-(4-(2,6-difluoro-4-methoxybenzyl)-3-oxo-3,4-dihydro-2H-benzo[b][1, 4]thiazin-7-yl)-3-(1H-indol-6-yl)urea], for which the IC50 is ≤ 1 µM.

For the compound `O=C(Nc1ccc2c(c1)SCC(=O)N2Cc1c(F)cc(O)cc1F)Nc1ccc2cc[nH]c2c1` [Example 127, 1-(4-(2,6-difluoro-4-hydroxybenzyl)-3-oxo-3,4-dihydro-2H-benzo[b][1, 4]thiazin-7-yl)-3-(1H-indol-6-yl)urea], the IC50 fell in the range of 1 to 10 µM.

Take `O=C(Nc1ccc2c(c1)OCC(=O)N2Cc1ccc(-n2cncn2)cc1)Nc1ccc2cc[nH]c2c1` [Example 128, 1-(4-(4-(1H-1,2,4-triazol-1-yl)benzyl)-3-oxo-3,4-dihydro-2H-benzo[b][1, 4]oxazin-7-yl)-3-(1H-indol-6-yl)urea]: the IC50 was > 10 µM.

On to `O=C(Nc1ccc2c(c1)OCC(=O)N2Cc1ccc2nonc2c1)Nc1ccc2cc[nH]c2c1` [Example 129, l-(4-(benzo[c][1,2,5]oxadiazol-5-ylmethyl)-3-oxo-3,4-dihydro-2H-benzo[b][1,4]oxazin-7-yl)-3-(1H-indol-6-yl)urea], for which the IC50 was ≤ 1 µM.

Consider `O=C(NCc1ccco1)Nc1ccc2c(c1)OCC(=O)N2Cc1ccccc1` [Example 130, 1-(4-benzyl-3-oxo-3,4-dihydro-2H-benzo[b][1, 4]oxazin-7-yl)-3-(furan-2-ylmethyl)urea], for which the IC50 is > 10 µM.

As for `O=C(Nc1ccc2c(c1)OCC(=O)N2Cc1ccccc1)Nc1c[nH]nc1-c1ccc(Cl)cc1` [Example 131, 1-(4-benzyl-3-oxo-3,4-dihydro-2H-benzo[b][1, 4]oxazin-7-yl)-3-(3-(4-chlorophenyl)-1H-pyrazol-4-yl)urea], the IC50 is > 10 µM.

As to `O=C(NCc1cc[nH]c1)Nc1ccc2c(c1)OCC(=O)N2Cc1ccccc1` [Example 132, 1-((1H-pyrrol-3-yl)methyl)-3-(4-benzyl-3-oxo-3,4-dihydro-2H-benzo[b][1, 4]oxazin-7-yl)urea], the IC50 is 1 to 10 µM.

For the compound `O=C(Nc1ccc2c(c1)CCCC2)Nc1ccc2c(c1)OCC(=O)N2Cc1ccccc1` [Example 133, 1-(4-benzyl-3-oxo-3,4-dihydro-2H-benzo[b][1, 4]oxazin-7-yl)-3-(5,6,7,8-tetrahydro-naphthalen-2-yl)urea], the IC50 lay within 1 to 10 µM.

Regarding `CC(C)(C)c1nc(CN2C(=O)COc3cc(NC(=O)Nc4ccc5cc[nH]c5c4)ccc32)no1` [Example 134, l-(4-((5-(tert-butyl)-1,2,4-oxadiazol-3-yl)methyl)-3-oxo-3,4-dihydro-2H-benzo[b][, 4]oxazin-7-yl)-3-(1H-indol-6-yl)urea], the IC50 lay within 1 to 10 µM.

For the compound `O=C(Nc1ccc2c(c1)OCC(=O)N2Cc1ccccc1)NC1CCc2ccccc2C1` (stereo not shown) [Example 135, 1-(4-benzyl-3-oxo-3,4-dihydro-2H-benzo[b][1, 4]oxazin-7-yl)-3-(1,2,3,4-tetrahydro-naphthalen-2-yl)urea], the IC50 fell in the range of 1 to 10 µM.

On to `O=C(Nc1ccc2c(c1)OCC(=O)N2Cc1ccccc1)NC1Cc2ccccc2C1` [Example 136, 1-(4-benzyl-3-oxo-3,4-dihydro-2H-benzo[b][1, 4]oxazin-7-yl)-3-(2,3-dihydro-1H-inden-2-yl)urea], for which the IC50 is 1 to 10 µM.

Consider `O=C(Nc1ccc2c(c1)OCC(=O)N2Cc1ccccc1)Nc1ccn(-c2ccccc2)n1` [Example 138, 1-(4-benzyl-3-oxo-3,4-dihydro-2H-benzo[b][1, 4]oxazin-7-yl)-3-(1-phenyl-1H-pyrazol-3-yl)urea], for which the IC50 is > 10 µM.

Take `O=C(Nc1ccc2c(c1)OCC(=O)N2Cc1ccc(O)cc1)Nc1ccc2cc[nH]c2c1` [Example 139, 1-(4-(4-hydroxybenzyl)-3-oxo-3,4-dihydro-2H-benzo[b][1, 4]oxazin-7-yl)-3-(1H-indol-6-yl)urea]: the IC50 was 1 to 10 µM.

`COC(=O)c1ccccc1CN1C(=O)COc2cc(NC(=O)Nc3ccc4cc[nH]c4c3)ccc21` [Example 140, methyl 2-((7-(3-(1H-indol-6-yl)ureido)-3-oxo-2,3-dihydro-4H-benzo[b][1, 4]oxazin-4-yl)methyl) benzoate]: the IC50 fell in the range of 1 to 10 µM.

Take `O=C(Nc1ccc2c(c1)OCC(=O)N2Cc1ccccc1)N1CCc2ccccc2C1` [Example 141, N-(4-benzyl-3-oxo-3,4-dihydro-2H-benzo[b][1, 4]oxazin-7-yl)-3,4-dihydro-isoquinoline-2(1H)-carboxamide]: the IC50 was 1 to 10 µM.

As for `O=C(Nc1ccc2c(c1)NCC2)Nc1ccc2c(c1)OCC(=O)N2Cc1ccccc1` [Example 142, 1-(4-benzyl-3-oxo-3,4-dihydro-2H-benzo[b][1, 4]oxazin-7-yl)-3-(indolin-6-yl)urea], the IC50 lay in the range of 1 to 10 µM.

As for `O=C(Nc1ccc2c(c1)OCC(=O)N2Cc1ccccc1C(=O)O)Nc1ccc2cc[nH]c2c1` [Example 143, 2-((7-(3-(1H-indol-6-yl)ureido)-3-oxo-2,3-dihydro-4H-benzo[b][1,4]oxazin-4-yl)methyl)benzoic acid], the IC50 was > 10 µM.

Turning to `NC(=O)c1ccccc1CN1C(=O)COc2cc(NC(=O)Nc3ccc4cc[nH]c4c3)ccc21` [Example 144, 2-((7-(3-(1H-indol-6-yl)ureido)-3-oxo-2,3-dihydro-4H-benzo[b][1, 4]oxazin-4-yl)methyl) benzamide], the IC50 fell in the range of 1 to 10 µM.

Turning to `O=C(Nc1ccc2c(c1)OCC(=O)N2CC1COCCO1)Nc1ccc2cc[nH]c2c1` (stereo not drawn) [Example 145, l-(4-((1,4-dioxan-2-yl)methyl)-3-oxo-3,4-dihydro-2H-benzo[b][1, 4]oxazin-7-yl)-3-(1H-indol-6-yl)urea], the IC50 was in the range of 1 to 10 µM.

With `O=C(Nc1ccc2c(c1)OCC(=O)N2CC1CCCO1)Nc1ccc2cc[nH]c2c1` (stereo not shown) [Example 146, 1-(1H-indol-6-yl)-3-(3-oxo-4-((tetrahydro-furan-2-yl)methyl)-3,4-dihydro-2H-benzo[b][1, 4]oxazin-7-yl)urea], the IC50 is 1 to 10 µM.

`O=C(Nc1ccc2c(c1)OCC(=O)N2Cc1ccncc1)Nc1ccc2cc[nH]c2c1` [Example 147, 1-(iH-indol-6-yl)-3-(3-oxo-4-(pyridin-4-ylmethyl)-3,4-dihydro-2H-benzo[b][1, 4]oxazin-7-yl)urea]: the IC50 is 1 to 10 µM.

Consider `O=C(Nc1ccc2c(c1)OCC(=O)N2Cc1cccnc1)Nc1ccc2cc[nH]c2c1` [Example 148, 1-(1H-indol-6-yl)-3-(3-oxo-4-(pyridin-3-ylmethyl)-3,4-dihydro-2H-benzo [b][1, 4]oxazin-7-yl)urea], for which the IC50 lay in the range of 1 to 10 µM.
